Experimental findings from patent publication US5574008A, “Biologically active fragments of glucagon-like insulinotropic peptide” (Eli Lilly and Company, priority 1994, dated 1996) are described below.

This test concerns the target T1, rat GLP-1 receptor (Rattus norvegicus, UniProt P32301).
T1 construct: expressed in transfected cells; host or cells: Dihydrofolate reductase-deficient Chinese hamster ovary cell line DXB-11; membrane preparation
T1 sequence (P32301 22-463): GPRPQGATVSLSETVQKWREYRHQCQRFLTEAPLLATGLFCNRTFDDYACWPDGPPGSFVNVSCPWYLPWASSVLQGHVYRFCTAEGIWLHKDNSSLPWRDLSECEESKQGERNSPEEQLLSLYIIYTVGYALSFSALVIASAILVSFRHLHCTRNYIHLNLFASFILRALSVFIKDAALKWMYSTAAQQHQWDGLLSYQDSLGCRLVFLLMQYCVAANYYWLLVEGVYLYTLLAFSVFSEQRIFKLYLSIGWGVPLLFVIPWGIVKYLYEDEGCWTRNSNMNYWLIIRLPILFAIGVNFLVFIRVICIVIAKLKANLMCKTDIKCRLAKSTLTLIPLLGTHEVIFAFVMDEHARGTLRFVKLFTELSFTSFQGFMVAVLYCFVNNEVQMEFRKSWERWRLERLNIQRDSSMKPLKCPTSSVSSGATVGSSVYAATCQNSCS
In words: In vitro GLP-1 agonist cAMP assay (particle concentration fluorescence immunoassay, membrane preparation). Format: biochemical. The procedure:
Cells were grown to confluency in 10% dialyzed fetal bovine serum/high glucose Dulbecco's Modified Eagle Medium with 0.1% proline at 37° C. The cell were then harvested, and membranes were prepared by first washing the cells with phosphate buffered saline (PBS), then twice with cold buffer (25 mM 4-(2-hydroxyethyl)-1 piperazineethanesulfonic acid (HEPES), 2 mM MgCl2, 1 mM ethylenedinitrilo-tetraacetic acid (EDTA), 20 μg/ml Leupeptin, 1 mM phenylmethyl sulfonyl fluoride (PMSF), 2 μg/ml Aprotinin, 50 μg/ml Trypsin Inhibitor, pH 8.0). The washed cells were resuspended in cold buffer, lysed in a glass Teflon homogenizer and then centrifuged at 35,300 g for 30 minutes at 4° C. The supernatant was removed and the pellet resuspended in cold buffer and homogenized. Two hundred μl aliquots (3.2 mg/ml) were stored at -80° C.
Briefly, 10 μl of membrane prep (80 μg/ml) was preincubated with 10 μl of test compound or reference compound in buffer (25 mM HEPES, 0.2% (w/v) bovine serum albumin (BSA), pH 7.6) at 32° C. for 10 minutes. Five μl of reaction buffer (25 mM HEPES, 0.2% (w/v) BSA, 13 mM (CH3 C00)2 Mg.4H2 O, 4 mM adenosine-5'-triphosphate (ATP), 40 nM guanosine 5'-O-3'thiotriphosphate (GTP-∂-s), 25 mM creatine phosphate, creatine kinase 250 U/ml, 1 mM 3-Isobutyl-1-methyl xanthine (IBMX), pH 7.6) was added and incubated for an additional 30 minutes. Incubations were stopped by adding 25 μl 10 mM EDTA and fluorescent tracer (cAMP-β phycoerythrin conjugate).
This assay, a particle concentration fluorescence immunoassay, was based on the competition between unlabelled cAMP and a fixed amount of fluorescent labelled cAMP for a limited number of binding sites on a cAMP specific antibody. By keeping the quantity of fluorescent ligand and antibody fixed, the amount of fluorescent ligand bound by the antibody was inversely proportional to the concentration of unlabelled cAMP. The antibody-bound cAMP was then captured by anti-rabbit IgG coated assay particles. Separation of the bound antibody fraction was achieved by filtration on Fluoricon®-Ca Assay Plates. After measuring the fluorescence in the pellet, the amount of bound fluorescent cAMP was calculated. The rate of cAMP production (pmol/min/mg) was then determined by interpolation from a standard curve.
For orientation: Cyclic AMP is a second messenger, typically raised through Gs and lowered through Gi signalling.

Turning to `CC[C@H](C)[C@H](NC(=O)[C@H](Cc1ccccc1)NC(=O)[C@H](CCC(=O)O)NC(=O)[C@H](CCCCN)NC(=O)[C@H](C)NC(=O)[C@H](C)NC(=O)[C@H](CCC(N)=O)NC(=O)CNC(=O)[C@H](CCC(=O)O)NC(=O)[C@H](CC(C)C)NC(=O)[C@H](Cc1ccc(O)cc1)NC(=O)[C@H](CO)NC(=O)[C@H](CO)NC(=O)[C@@H](NC(=O)[C@H](CC(=O)O)NC(=O)[C@H](CO)NC(=O)[C@@H](NC(=O)[C@H](Cc1ccccc1)NC(=O)[C@@H](NC(=O)CNC(=O)[C@@H](N)CCC(=O)O)[C@@H](C)O)[C@@H](C)O)C(C)C)C(=O)N[C@@H](C)C(=O)N[C@@H](Cc1c[nH]c2ccccc12)C(=O)N[C@@H](CC(C)C)C(=O)N[C@H](C(=O)N[C@@H](CCCCN)C(=O)NCC(=O)N[C@@H](CCCNC(=N)N)C(N)=O)C(C)C` [GLP-1(9-36)NH2], the cAMP produced (Dose 0.005 nM) is recorded as 21.165 pmol/min/mg; the cAMP produced (Dose 0.01 nM) was determined as 21.743 pmol/min/mg; the cAMP produced (Dose 0.02 nM) turned out to be 20.678 pmol/min/mg; the cAMP produced (Dose 0.05 nM) is on record as 22.602 pmol/min/mg; the cAMP produced (Dose 0.1 nM) is reported as 22.033 pmol/min/mg; the cAMP produced (Dose 0.4 nM) was 21.460 pmol/min/mg. Moreover, the cAMP produced (Dose 1 nM) was found to be 21.588 pmol/min/mg, the cAMP produced (Dose 4 nM) stood at 21.046 pmol/min/mg, the cAMP produced (Dose 10 nM) is 22.320 pmol/min/mg and the cAMP produced (Dose 100 nM) came to 19.156 pmol/min/mg.
